Species on record: Rattus norvegicus
Assay: Open TG-GATES - Regimen: Single
Type: toxicity, organism-based, Sprague-Dawley
Design: regimen Single, gender Male, age 6 weeks
Settings: in vivo, po, 10 mg/kg, route gavage, dose level Low; for APTT / Bas / Eos / Fbg / Hb / Ht / Lym / MCH / MCHC / MCV / Mono / Neu / PT / Plat / RBC / Ret / WBC: tissue Blood; for KIDNEY_L / KIDNEY_R / KIDNEY_TOTAL: tissue Kidney; for LIVER: tissue Liver; for A/G / ALP / ALT / AST / BUN / CRE / Ca / Cl / DBIL / GLC / IP / K / LDH / Na / PL / RALB / TBIL / TC / TG / TP / gamma-GTP: tissue Plasma

CN(C)CCN(Cc1cccs1)c1ccccn1
TERMINAL_BW (3 h): 185 g | APTT (3 h): 20.7 s | Bas (3 h): 0% | Eos (3 h): 0.6% | Fbg (3 h): 285 mg/dL | Hb (3 h): 13.4 g/dL | Ht (3 h): 40.7% | Lym (3 h): 79.6% | MCH (3 h): 21.2 pg | MCHC (3 h): 32.9% | MCV (3 h): 64.6 fL | Mono (3 h): 2% | Neu (3 h): 17.2% | PT (3 h): 16.4 s | Plat (3 h): 111.1 x10_4/uL | RBC (3 h): 630.4 x10_4/ul | Ret (3 h): 7.5% | WBC (3 h): 82 x10_2/uL | KIDNEY_L (3 h): 0.8 g | KIDNEY_R (3 h): 0.8 g | KIDNEY_TOTAL (3 h): 1.6 g | LIVER (3 h): 8.1 g | A/G (3 h): 1.3 | ALP (3 h): 1664.4 IU/L | ALT (3 h): 41.2 IU/L | AST (3 h): 77.8 IU/L | BUN (3 h): 13.6 mg/dL | CRE (3 h): 0.2 mg/dL | Ca (3 h): 10.5 mg/dL | Cl (3 h): 107.6 meq/L | DBIL (3 h): 0.002 mg/dL | GLC (3 h): 171.6 mg/dL | IP (3 h): 8 mg/dL | K (3 h): 4.2 meq/L | LDH (3 h): 205.8 IU/L | Na (3 h): 144 meq/L | PL (3 h): 125.4 mg/dL | RALB (3 h): 3 g/dL | TBIL (3 h): 0.014 mg/dL | TC (3 h): 67.8 mg/dL | TG (3 h): 43.2 mg/dL | TP (3 h): 5.3 g/dL | gamma-GTP (3 h): 1.2 IU/L | TERMINAL_BW (6 h): 188.4 g | APTT (6 h): 20.6 s | Bas (6 h): 0% | Eos (6 h): 0.6% | Fbg (6 h): 294.6 mg/dL | Hb (6 h): 12.7 g/dL | Ht (6 h): 39% | Lym (6 h): 77.8% | MCH (6 h): 21.3 pg | MCHC (6 h): 32.6% | MCV (6 h): 65.3 fL | Mono (6 h): 2.2% | Neu (6 h): 18.6% | PT (6 h): 17.1 s | Plat (6 h): 119.7 x10_4/uL | RBC (6 h): 597.6 x10_4/ul | Ret (6 h): 7.6% | WBC (6 h): 70.2 x10_2/uL | KIDNEY_L (6 h): 0.9 g | KIDNEY_R (6 h): 0.9 g | KIDNEY_TOTAL (6 h): 1.9 g | LIVER (6 h): 8.2 g | A/G (6 h): 1.3 | ALP (6 h): 1485.8 IU/L | ALT (6 h): 37.6 IU/L | AST (6 h): 70.2 IU/L | BUN (6 h): 10.8 mg/dL | CRE (6 h): 0.1 mg/dL | Ca (6 h): 10.3 mg/dL | Cl (6 h): 106.6 meq/L | DBIL (6 h): 0.002 mg/dL | GLC (6 h): 171.6 mg/dL | IP (6 h): 9.6 mg/dL | K (6 h): 4.4 meq/L | LDH (6 h): 202.4 IU/L | Na (6 h): 141.6 meq/L | PL (6 h): 124 mg/dL | RALB (6 h): 2.9 g/dL | TBIL (6 h): 0.016 mg/dL | TC (6 h): 70.6 mg/dL | TG (6 h): 63.6 mg/dL | TP (6 h): 5.3 g/dL | gamma-GTP (6 h): 1 IU/L | TERMINAL_BW (9 h): 182.3 g | APTT (9 h): 20.7 s | Bas (9 h): 0% | Eos (9 h): 0.4% | Fbg (9 h): 314.8 mg/dL | Hb (9 h): 12.9 g/dL | Ht (9 h): 38.8% | Lym (9 h): 77.4% | MCH (9 h): 20.8 pg | MCHC (9 h): 33.3% | MCV (9 h): 62.5 fL | Mono (9 h): 2.2% | Neu (9 h): 19.4% | PT (9 h): 15.9 s | Plat (9 h): 114.9 x10_4/uL | RBC (9 h): 621.8 x10_4/ul | Ret (9 h): 7.4% | WBC (9 h): 62 x10_2/uL | KIDNEY_L (9 h): 0.8 g | KIDNEY_R (9 h): 0.9 g | KIDNEY_TOTAL (9 h): 1.7 g | LIVER (9 h): 7.8 g | A/G (9 h): 1.2 | ALP (9 h): 1429.4 IU/L | ALT (9 h): 30.2 IU/L | AST (9 h): 62.8 IU/L | BUN (9 h): 11.2 mg/dL | CRE (9 h): 0.1 mg/dL | Ca (9 h): 10.4 mg/dL | Cl (9 h): 106.4 meq/L | DBIL (9 h): 0 mg/dL | GLC (9 h): 171 mg/dL | IP (9 h): 9.6 mg/dL | K (9 h): 4.2 meq/L | LDH (9 h): 171 IU/L | Na (9 h): 142.4 meq/L | PL (9 h): 129 mg/dL | RALB (9 h): 3 g/dL | TBIL (9 h): 0.018 mg/dL | TC (9 h): 67.2 mg/dL | TG (9 h): 69.2 mg/dL | TP (9 h): 5.4 g/dL | gamma-GTP (9 h): 1 IU/L | TERMINAL_BW (24 h): 197.6 g | APTT (24 h): 19.8 s | Bas (24 h): 0% | Eos (24 h): 0.5% | Fbg (24 h): 282.8 mg/dL | Hb (24 h): 12.7 g/dL | Ht (24 h): 38.4% | Lym (24 h): 80.5% | MCH (24 h): 21.8 pg | MCHC (24 h): 33.1% | MCV (24 h): 65.8 fL | Mono (24 h): 1.8% | Neu (24 h): 16.8% | PT (24 h): 16.6 s | Plat (24 h): 114.6 x10_4/uL | RBC (24 h): 584 x10_4/ul | Ret (24 h): 7.2% | WBC (24 h): 94 x10_2/uL | KIDNEY_L (24 h): 0.9 g | KIDNEY_R (24 h): 0.9 g | KIDNEY_TOTAL (24 h): 1.7 g | LIVER (24 h): 9.3 g | A/G (24 h): 1.2 | ALP (24 h): 1858.2 IU/L | ALT (24 h): 42.2 IU/L | AST (24 h): 69.6 IU/L | BUN (24 h): 16.4 mg/dL | CRE (24 h): 0.2 mg/dL | Ca (24 h): 10.7 mg/dL | Cl (24 h): 107.4 meq/L | DBIL (24 h): 0.002 mg/dL | GLC (24 h): 180.6 mg/dL | IP (24 h): 7.3 mg/dL | K (24 h): 4.3 meq/L | LDH (24 h): 223.2 IU/L | Na (24 h): 142.8 meq/L | PL (24 h): 145.4 mg/dL | RALB (24 h): 2.9 g/dL | TBIL (24 h): 0.008 mg/dL | TC (24 h): 75.2 mg/dL | TG (24 h): 131.8 mg/dL | TP (24 h): 5.3 g/dL | gamma-GTP (24 h): 1 IU/L
